# Reference: patent US6159735A, “Calcitonin/calcitonin gene related peptide enhancer element and associated DNA binding proteins” (University of Iowa Research Foundation, priority 1995, dated 2000)
# pIC50, pKd: −log10 of the molar value. Like-named read-outs stand apart in the source and are kept apart here.
# Legend:
# CT/CGRP enhancer [1] = assay: CT/CGRP promoter/enhancer luciferase reporter transfection assay in CA77 cells; assay type: cell-based, rat
# CT/CGRP enhancer [2] = assay: CT/CGRP promoter/enhancer reporter gene (luciferase/CAT) transfection assay in 44-2C cells
# Description: (§1) The 44-2C rat medullary thyroid carcinoma cell line was maintained in DMEM (high glucose) with 1% equine serum (HyClone Laboratories, Logan, Utah) and 0.1% L-glutamine; CA77 rat medullary thyroid carcinoma cells in Ham's F-12 medium/DMEM (low glucose)(1:1) with 10% fetal bovine serum (HyClone Laboratories); HeLa human epithelial derived cells in Ham's F-12 medium with 10% fetal bovine serum; and Rat1 fibroblast cells in DMEM (high glucose) with 10% calf serum. Also, 100 units/ml penicillin and 100 μg/ml streptomycin (GIBCO) were added to each culture medium.
# (§2) Transfections were carried out by growing cells to approximately 80% confluency, harvesting them by brief trypsin/EDTA treatment, and resuspending them in Ca^2+ /Mg^2+ -free PBS.
# In the retinoic acid experiments, the cells were treated essentially as above except that an apparently critical parameter for retinoic acid inhibition was that the CA77 cells could not be aggregated into clumps. To be consistent, all cell types were subcultured by trypsin treatment 1 day prior to the experiment, except for the 44-2C cells, which often required 2 days to firmly attach. About 4-5×10^6 cells in 0.8 ml were transfected with supercoiled DNA by electroporation using a Biorad Gene Pulser apparatus at 200 volts for the CA77 cells, 220 volts for the HeLa cells, and 260 volts for the 44-2C cells, all with a capacitance of 960 microfarads. The same amount of DNA (20 μg) was used per cuvette unless otherwise indicated. For the α-RXR cotransfection assays, 10 μg 18 bp CT/CGRP-TK-luc plasmid, 18 μg RSV-α-RAR plasmid, or 2 μg β-actin-RXR plasmid (brought to 30 μg total DNA with CMV-β-gal plasmid) were transfected into the cells (constructs described in Glass, C. K., S. M. Lipkin, O. V. Devary, and M. G. Rosenfeld (1989) Cell 59, 697-708; Glass, C. K., O. V. Devary, and M. G. Rosenfeld (1990) Cell 63, 729-738). The transfected cells from a single cuvette were then split between two 60 mm dishes and treated with 1 mM retinoic acid (Sigma) or the vehicle (0.01% ethanol). About 50 to 80% cell survival of the electroporation procedure was observed, except the 44-2C cells, in which approximately 25% of the cells were recovered. The cells were harvested 18-25 hours after transfection. Activities are reported per 50 μg protein unless otherwise noted.
# Activity of the reporter genes and control constructs was measured by luciferase, CAT, or β-Galactosidase assays.
# CT/CGRP enhancer [3] = assay: CT/CGRP promoter/enhancer luciferase reporter transfection assay in Rat1 fibroblast cells; assay type: cell-based, rat
# Description: Reporter fusion genes were constructed for experiments to localize cis-active elements responsible for glucocorticoid repression of the CT/CGRP gene.
# as §1, §2
# Activity of the reporter genes and control constructs was measured by luciferase, CAT, or β-Galactosidase assays. […] After centrifugation, 20-50 μl of supernatant cell extract was assayed for luciferase activity as previously described (Braiser, A. R., Tate, J. E., and Habener, J. F. (1989) Biotechniques 7, 1116-1122) using a luminometer (Analytical Luminescence Laboratory Monolight 2001). […]
# CT/CGRP enhancer [4] = assay: CT/CGRP promoter/enhancer luciferase reporter transfection assay in HeLa cells; assay type: cell-based, human
# [5] = biological target: nuclear retinoic acid receptor (RAR); details: literature; read-out: nuclear retinoic acid receptor (RAR) binding affinity Kd; cited from earlier work
# [6] = system: H/OB, OB2, HB1 and Oct-1 complexes on CT/CGRP enhancer; assay: Electrophoretic mobility shift assay of CT/CGRP enhancer complexes in CA77 nuclear extracts; assay type: biochemical, rat; details: nuclear extracts from CA77 cells treated 24 hours with retinoic acid
# Protocol: To perform electrophoretic mobility shift assays, nuclei were harvested from approximately 10^8 cells using a previously described miniextract preparation protocol, with one modification (Lee, K. A. W., and Green, M. R. (1990) Methods Enzymol. 181, 20-25). Instead of dialyzing the extract to remove excess NaCl, the extract was diluted 1:1 with extract buffer lacking NaCl. Aliquots of the diluted extract were stored at -70° C. Annealed oligonucleotide duplexes (10 pmol) containing recessed 3' termini were labeled for use as probes by incorporation of [^32 P]dATP (25 μCi, 3000 Ci/mmol) using Klenow DNA polymerase. Both strands of blunt-ended oligonucleotides (10 pmol) were labeled separately using T4 polynucleotide kinase and [γ-^32 P]ATP (20 μCi, 3000 Ci/mmol), then annealed. Unlabeled oligonucleotides used for competition assays were annealed and then treated with Klenow DNA polymerase if the ends were not already blunt. All probes and competitor DNAs were purified over Sephadex G50 columns.
# The binding reaction (20 μl) contained approximately 3 μg (1-2 μl) of nuclear extract, 0.02 pmol of ^32 P-labeled DNA probe (50,000-100,000 cpm), 10 mM Tris-HCl, pH 7.5, 5% glycerol, 50 mM NaCl, 1 mM EDTA, and 1 mM dithiothreitol. Also, 0.1 μg of poly [d(I-C)] […] Unlabeled competitors were preincubated with nuclear extracts 10 minutes on ice prior to addition of probe. […]
# calcitonin and CGRP mRNA = details: CA77 cells, retinoic acid treatment, literature; cited from earlier work
# [7] = system: cytomegalovirus promoter / thymidine kinase promoter; assay: Control reporter genes CMV-luc and TK-luc in CA77 and 44-2C cells; assay type: cell-based, rat; details: 1 μM retinoic acid
# [8] = system: retinoic acid responsive element from the β-retinoic acid receptor gene (RARE-TK-luc); assay: cells; details: Rattus norvegicus
# Protocol: In the retinoic acid experiments, the cells were treated essentially as above except that an apparently critical parameter for retinoic acid inhibition was that the CA77 cells could not be aggregated into clumps. […] About 4-5×10^6 cells in 0.8 ml were transfected with supercoiled DNA by electroporation using a Biorad Gene Pulser apparatus at 200 volts for the CA77 cells, 220 volts for the HeLa cells, and 260 volts for the 44-2C cells, all with a capacitance of 960 microfarads. The same amount of DNA (20 μg) was used per cuvette unless otherwise indicated. For the α-RXR cotransfection assays, 10 μg 18 bp CT/CGRP-TK-luc plasmid, 18 μg RSV-α-RAR plasmid, or 2 μg β-actin-RXR plasmid (brought to 30 μg total DNA with CMV-β-gal plasmid) were transfected into the cells (constructs described in Glass, C. K., S. M. Lipkin, O. V. Devary, and M. G. Rosenfeld (1989) Cell 59, 697-708; Glass, C. K., O. V. Devary, and M. G. Rosenfeld (1990) Cell 63, 729-738). The transfected cells from a single cuvette were then split between two 60 mm dishes and treated with 1 mM retinoic acid (Sigma) or the vehicle (0.01% ethanol). […] The cells were harvested 18-25 hours after transfection. Activities are reported per 50 μg protein unless otherwise noted.
# Activity of the reporter genes and control constructs was measured by luciferase, CAT, or β-Galactosidase assays. To carry out the luciferase assays, cells were washed twice in PBS, harvested by scraping into PBS and then lysed in 100 μl of Triton lysis buffer (1% Triton X-100, 25 mM glycylclycine, pH 7.8, 15 mM MgSO4, 1 mM dithiothreitol). After centrifugation, 20-50 μl of supernatant cell extract was assayed for luciferase activity as previously described (Braiser, A. R., Tate, J. E., and Habener, J. F. (1989) Biotechniques 7, 1116-1122) using a luminometer (Analytical Luminescence Laboratory Monolight 2001). The assay was linear between 100 (background) and at least 800,000 light units.
compound,measurement,setting,value
"CC1=C(/C=C/C(C)=C/C=C/C(C)=C/C=O)C(C)(C)CCC1 [Retinal, retinal]",minimal effective concentration,"CT/CGRP enhancer [1]; Rattus norvegicus, 1125 CAL-luc, read-out: concentrations at which CT/CGRP promoter activity was repressed",≥ 0.1 µM
same,pIC50,"CT/CGRP enhancer [1]; Rattus norvegicus, 1125 CAL-luc, read-out: half-maximal repression of CT/CGRP promoter activity",6.52
C[C@@H]1C[C@H]2[C@@H]3CCC4=CC(=O)C=C[C@]4(C)[C@@]3(F)[C@@H](O)C[C@]2(C)[C@@]1(O)C(=O)CO [dexamethasone],repression of -920-1125 TK-LUC fusion gene expression,"CT/CGRP enhancer [2]; 44-2C cells, 500 nM dexamethasone",2.5-3 fold
same,repression of promoter activity of fusion genes containing at least 1125 bp of upstream sequences,"CT/CGRP enhancer [2]; 44-2C cells, 500 nM dexamethasone, 24 h",2.5-4.5 fold
same,"repression of -920-1125 TK-LUC fusion gene expression, in a few experiments","CT/CGRP enhancer [2]; 44-2C cells, 500 nM dexamethasone, a few experiments",≤ 10 fold
same,effect on gene activity from the shorter constructs,"CT/CGRP enhancer [2]; 44-2C cells, 500 nM dexamethasone, constructs lacking -920-1125 region",slightly stimulated
same,repression with -1091-1017 and -1043-1025 elements (TK-LUC),"CT/CGRP enhancer [2]; 44-2C cells, dexamethasone",24 fold
same,repression of -920-1125-TK-LUC promoter activity in dose response,"CT/CGRP enhancer [2]; 44-2C cells, dexamethasone concentrations above 50 nM, 24 h",approximately 10 fold
same,pIC50,"CT/CGRP enhancer [2]; Rattus norvegicus, 24 h, read-out: dexamethasone concentration for half-maximal inhibition of -920-1125-TK-LUC",8.60
same,repression of activity of the -920-1125 enhancer,CT/CGRP enhancer [3],did not repress
same,repression of calcitonin/CGRP promoter fusion genes containing the -920-1125-bp element,CT/CGRP enhancer [1]; dexamethasone treatment,did not repress
same,repression with smaller elements that include the 18-bp region (TK-LUC),CT/CGRP enhancer [1]; p<0.01,1.6 fold
same,repression of activity of the -920-1125-bp region (TK-LUC),CT/CGRP enhancer [1]; p<0.05,1.2 fold
same,repression of activity of the -920-1125 enhancer,CT/CGRP enhancer [4]; HeLa cells,did not repress
same,stimulation of reporter activity of all plasmids including TK-LUC,CT/CGRP enhancer [4]; non-neuroendocrine cells,1.5-2 fold
CC1=C(/C=C/C(C)=C/C=C/C(C)=C/C(=O)O)C(C)(C)CCC1 [retinoic acid],pKd,[5],9.70
same,"change in OB2, HB1, or Oct-1 complexes",[6],no significant change
same,decrease in H/OB complex (densitometric scans),[6],~2 fold
same,repression of 1125-920-TK-luc activity,"CT/CGRP enhancer [2]; 44-2C cells, 1 μM retinoic acid",2 fold
same,retinoic acid dependent repression with 75 bp and 18 bp fragments (TK-luc),CT/CGRP enhancer [1],comparable to the full 205 bp region
same,retinoic acid dependent repression with 1039-1125-TK-luc and 920-1038-TK-luc,CT/CGRP enhancer [1],Neither 1039-1125-TK-luc nor 920-1038-TK-luc exhibited retinoic acid dependent repression
same,retinoic acid repression with HLH or Oct mutant constructs,CT/CGRP enhancer [1],neither the HLH or Oct mutant constructs conferred retinoic acid repression
same,"maximal repression of 1125 CAL-luc, decrease of control activity",CT/CGRP enhancer [1]; 100 nM retinoic acid,3 fold
same,repression of promoter fragments containing 920 bp or less,CT/CGRP enhancer [1]; 1 μM retinoic acid,not repressed
same,decrease in promoter activity of luciferase fusion genes containing 1125 bp or more 5' flanking sequences,"CT/CGRP enhancer [1]; 1 μM retinoic acid, 24 hours",2-3 fold
same,repression in CAL1125-luc activity without cotransfected receptor,"CT/CGRP enhancer [1]; 1 μM retinoic acid, parallel cultures",2 fold
same,retinoic acid dependent repression in CAL1125-luc activity with cotransfected α-RAR,"CT/CGRP enhancer [1]; 1 μM retinoic acid, α-RAR expression vector",5 fold
same,pIC50,"CT/CGRP enhancer [1]; Rattus norvegicus, read-out: amount required for half-maximal repression of 1125 CAL-luc",~9.70
same,decrease in calcitonin and CGRP mRNA levels,calcitonin and CGRP mRNA,2-3 fold
same,effect on 1125-920-TK-luc activity,"CT/CGRP enhancer [4]; HeLa cells, 1 μM retinoic acid, also with α-RAR/α-RXR cotransfection",no effect
same,effect on TK-luc activity,[7]; 44-2C cells,no effect
same,effect on CMV-luc and TK-luc,[7]; CA77 cells,not significantly affected
same,fold induction at 1 µM,"[8]; read-out: increase in RARE-TK-luc activity, 44-2C cells, 1 μM retinoic acid",35
same,fold induction at 1 µM,"[8]; read-out: increase in RARE-TK-luc activity, CA77 cells, 1 μM retinoic acid, no cotransfected receptor",5
same,fold induction at 1 µM,"[8]; read-out: retinoic acid dependent stimulation of RARE-TK-luc activity with cotransfected α-RAR, CA77 cells, 1 μM retinoic acid, α-RAR expression vector",15
